Test results published in publication PMC6522510 (Nature Communications, 2019).
Read-outs that look alike come from different tables or passages of the source.

Legend:
Experiment in all cases: Secondary dose-response HTS, Cell Titer Glo; call rule not given here
Assay type in all cases: cell-based, human
MOLM-13 = test system: MOLM-13
MV4-11 = test system: MV4-11
CHRF288-11 = test system: CHRF288-11
CMK = conditions: CMK
CMS = test system: CMS
M07e = test system: M07e
ML2 = test system: ML2
U937 = test system: U937
[1] = secondary high-throughput screen, MOLM-13
[2] = secondary high-throughput screen, MV4-11
[3] = secondary high-throughput screen, CHRF288-11
[4] = secondary high-throughput screen
[5] = secondary high-throughput screen, CMS
[6] = secondary high-throughput screen, M07e
[7] = secondary high-throughput screen, ML-2
[8] = secondary high-throughput screen, U937
[9] = secondary high-throughput screen, MOLM-13, read-out: average effective concentration, MOLM-13
[10] = secondary high-throughput screen, MV4-11, read-out: average effective concentration, MV4-11
[11] = secondary high-throughput screen, U937, read-out: average effective concentration, U937
[12] = Homo sapiens, MOLM-13, secondary HTS, 72 h, average of triplicate, read-out: EC50 MOLM-13
[13] = Homo sapiens, MV4-11, secondary HTS, 72 h, average of triplicate, read-out: EC50 MV4-11
[14] = Homo sapiens, HTS, secondary high-throughput screen, CHRF288-11, read-out: average effective concentration, CHRF288-11
[15] = Homo sapiens, secondary HTS, 72 h, average of triplicate, read-out: EC50 CHRF288-11
[16] = Homo sapiens, secondary HTS, 72 h, average of triplicate, read-out: EC50 CMK
[17] = Homo sapiens, secondary high-throughput screen, read-out: average effective concentration, CMK
[18] = Homo sapiens, secondary HTS, 72 h, average of triplicate, read-out: EC50 CMS
[19] = Homo sapiens, M-07e, secondary HTS, 72 h, average of triplicate, read-out: EC50 M07e
[20] = Homo sapiens, ML-2, secondary HTS, 72 h, average of triplicate, read-out: EC50 ML2
[21] = Homo sapiens, secondary high-throughput screen, ML-2, read-out: average effective concentration, ML-2
[22] = Homo sapiens, U-937, secondary HTS, 72 h, average of triplicate, read-out: EC50 U937
[23] = Homo sapiens, U-937, secondary high-throughput screen, U937, read-out: average effective concentration, U937
[24] = Homo sapiens, secondary high-throughput screen, MV4-11, read-out: average effective concentration, MV4-11
[25] = Homo sapiens, HTS, secondary high-throughput screen, CMS, read-out: average effective concentration, CMS
[26] = Homo sapiens, M-07e, secondary high-throughput screen, M07e, read-out: average effective concentration, M07e
[27] = Homo sapiens, secondary high-throughput screen, MOLM-13, read-out: average effective concentration, MOLM-13
[28] = Homo sapiens, read-out: average effective concentration, CMK
[29] = Homo sapiens, HTS, read-out: average effective concentration, CMS

SMILES | average effective concentration, MOLM-13 (MOLM-13; [1]) | average effective concentration, MV4-11 (MV4-11; [2]) | average effective concentration, CHRF288-11 (CHRF288-11; [3]) | average effective concentration, CMK (CMK; [4]) | average effective concentration, CMS (CMS; [5]) | average effective concentration, M07e (M07e; [6]) | average effective concentration, ML-2 (ML2; [7]) | average effective concentration, U937 (U937; [8]) | EC50 (CHRF288-11; [14]) | EC50 (CMK; [17]) | EC50 (ML2; [21]) | EC50 (U937; [23]) | EC50 (MV4-11; [24]) | EC50 (CMS; [25]) | EC50 (M07e; [26]) | further results
Cc1ccc(S(=O)(=O)n2c(N)nc3ccccc32)cc1 [NODINITIB-1] | Inactive | Inactive | Inactive | Inactive | Inactive | Inactive | Inactive | Inactive |  |  |  |  |  |  |  | 
O=c1cc(N2CCOCC2)oc2c1ccc1ccccc12 [NU 7026] | Inactive | Inactive | Inactive | Inactive | Inactive | Inactive | Inactive | Inactive |  |  |  |  |  |  |  | 
CC(C)(CCc1ccccc1)C(=O)Nc1ccc(C(=O)NO)cc1 [OSU-HDAC-44] |  |  |  | Inactive |  |  |  |  |  |  |  |  |  |  |  | EC50 (MOLM-13; [9]): 1300 nM; EC50 (MV4-11; [10]): 290 nM; EC50 (CHRF288-11; secondary high-throughput screen, CHRF288-11, read-out: average effective concentration, CHRF288-11): 1500 nM; EC50 (CMS; secondary high-throughput screen, CMS, read-out: average effective concentration, CMS): 480 nM; EC50 (M07e; secondary high-throughput screen, M07e, read-out: average effective concentration, M07e): 350 nM; EC50 (ML2; secondary high-throughput screen, ML-2, read-out: average effective concentration, ML-2): 1400 nM; EC50 (U937; [11]): 490 nM
COC[C@H](NC(=O)c1cnc(C)s1)C(=O)N[C@@H](COC)C(=O)N[C@@H](Cc1ccccc1)C(=O)[C@@]1(C)CO1 [Oprozomib, reference compound] |  |  |  |  |  |  |  |  | 25 nM | 7.6 nM | 5 nM | 11 nM |  |  |  | EC50 (MOLM-13; [12]): 10 nM; EC50 (MV4-11; [13]): 10 nM; EC50 (CHRF288-11; [15]): 30 nM; EC50 (CMK; [16]): 10 nM; EC50 (CMS; [18]): 1 nM; EC50 (M07e; [19]): 10 nM; EC50 (ML2; [20]): 10 nM; EC50 (U937; [22]): 10 nM
C[C@@H]1O[C@@H](O[C@H]2C[C@@H](O)[C@]3(CO)[C@H]4[C@H](O)C[C@]5(C)[C@@H](C6=CC(=O)OC6)CC[C@]5(O)[C@@H]4CC[C@]3(O)C2)[C@H](O)[C@H](O)[C@H]1O [Ouabain, reference compound] |  |  |  |  |  |  |  |  | 43 nM |  | 31 nM | 41 nM | 38 nM | 46 nM | 64 nM | EC50 (MOLM-13; [12]): 30 nM; EC50 (MV4-11; [13]): 40 nM; EC50 (CHRF288-11; [15]): 40 nM; EC50 (CMK; [16]): 180 nM; EC50 (CMS; [18]): 50 nM; EC50 (M07e; [19]): 60 nM; EC50 (ML2; [20]): 30 nM; EC50 (U937; [22]): 40 nM
COc1cccc(-c2cc(=O)c3ccccc3o2)c1N [PD 98059] | Inactive | Inactive | Inactive | Inactive | Inactive | Inactive | Inactive | Inactive |  |  |  |  |  |  |  | 
Cc1cc(I)ccc1Nc1c(C(=O)NOCC2CC2)cc(F)c(F)c1F [PD 198306] | Inactive | Inactive | Inactive | Inactive | Inactive | Inactive | Inactive | Inactive |  |  |  |  |  |  |  | 
Cn1cc(-c2[nH]c3cc(NC(=O)[C@H](N)C4CCCCC4)cc4c3c2C=NNC4=O)cn1 [PF-477736] |  |  |  |  |  |  |  |  | 1200 nM |  | 28 nM | 100 nM | 50 nM |  | 240 nM | EC50 (MOLM-13; [27]): 18 nM; EC50 (CMK; [28]): 220 nM; EC50 (CMS; [29]): 6200 nM
CN(C)C1CCN(C(=O)c2ccc(NC(=O)Nc3ccc(-c4nc(N5CCOCC5)nc(N5CCOCC5)n4)cc3)cc2)CC1 [PF-05212384] |  |  | Inactive |  | Inactive | Inactive | Inactive |  |  |  |  |  |  |  |  | EC50 (MOLM-13; [9]): 190 nM; EC50 (MV4-11; [10]): 47 nM; EC50 (CMK; secondary high-throughput screen, read-out: average effective concentration, CMK): 7700 nM; EC50 (U937; [11]): 24 nM
Cc1ccc(C(=O)Nc2ccc(CN3CCN(C)CC3)c(C(F)(F)F)c2)cc1C#Cc1cnc2cccnn12 [PONATINIB] |  |  |  |  |  |  |  |  |  |  |  |  |  |  |  | EC50 (MOLM-13; Homo sapiens, MOLM-13, read-out: average effective concentration, MOLM-13): 17 nM; EC50 (MV4-11; Homo sapiens, MV4-11, read-out: average effective concentration, MV4-11): 11 nM; EC50 (CHRF288-11; Homo sapiens, HTS, read-out: average effective concentration, CHRF288-11): 1000 nM; EC50 (CHRF288-11; read-out: average effective concentration, CHRF288-11): 980 nM; EC50 (CMK; [28]): 1600 nM; EC50 (CMS; [29]): 6700 nM; EC50 (M07e; Homo sapiens, M-07e, read-out: average effective concentration, M07e): 7000 nM; EC50 (ML2; Homo sapiens, ML-2, read-out: average effective concentration, ML-2): 5300 nM; EC50 (U937; Homo sapiens, U-937, read-out: average effective concentration, U937): 2500 nM
COC(=O)[C@]1(C)CC[C@]2(C)CC[C@]3(C)C4=CC=C5C(=CC(=O)C(O)=C5C)[C@]4(C)CC[C@@]3(C)[C@@H]2C1 [PRISTIMERIN] | Inactive | Inactive |  |  |  |  |  |  | 240 nM | 240 nM | 120 nM | 800 nM |  | 1500 nM |  | EC50 (M07e; Homo sapiens, M-07e, secondary high-throughput screen, […], read-out: average effective concentration, M07e): 4600 nM
O=C(Nc1cc(Cl)cc2c1[nH]c1cnccc12)c1cccnc1 [PS-1145] | Inactive | Inactive | Inactive | Inactive | Inactive | Inactive | Inactive | Inactive |  |  |  |  |  |  |  | 
O=C1NC(=O)/C(=C/c2cccc(C(F)(F)F)c2)S1 [SMI-4A] | Inactive | Inactive | Inactive | Inactive | Inactive | Inactive | Inactive | Inactive |  |  |  |  |  |  |  | 
O=C([O-])Cc1ccccc1.[Na+] [SODIUM PHENYLACETATE] |  | Inactive | Inactive | Inactive | Inactive |  | Inactive | Inactive |  |  |  |  |  |  |  | EC50 (MOLM-13; [9]): 2100 nM; average effective concentration, M07e (M07e; secondary high-throughput screen, […]): Inactive
CCN(CC)CCNC(=O)c1c(C)[nH]c(/C=C2\C(=O)Nc3ccc(F)cc32)c1C [SUNITINIB] |  |  |  |  |  |  |  |  | 490 nM | 330 nM | 270 nM | 270 nM | 34 nM | > 10000 nM | 460 nM | EC50 (MOLM-13; [27]): 19 nM
Nc1nc2nc[nH]c2c(=S)[nH]1 [THIOGUANINE] |  |  |  |  |  |  |  |  | 3500 nM | 3800 nM | 6300 nM | > 10000 nM | 3000 nM | > 10000 nM | > 10000 nM | EC50 (MOLM-13; [27]): 4900 nM
CC[C@@]1(O)C(=O)OCc2c1cc1n(c2=O)Cc2cc3c(CN(C)C)c(O)ccc3nc2-1 [TOPOTECAN] |  |  |  |  |  |  |  |  | 500 nM | 470 nM | 250 nM | 690 nM | 170 nM | 7200 nM | 1700 nM | EC50 (MOLM-13; [27]): 120 nM
COc1cc(NCc2ccc3nc(N)nc(N)c3c2C)cc(OC)c1OC [TRIMETREXATE] |  |  |  |  |  |  |  |  | 7600 nM | 4200 nM | 2900 nM | > 10000 nM | 1800 nM | 1700 nM | 10000 nM | EC50 (MOLM-13; [27]): 170 nM
COc1cc2c(NC3CCN(C)CC3)nc(N3CCCN(C)CC3)nc2cc1OCCCN(C)C [UNC0224] | Inactive | Inactive | Inactive | Inactive | Inactive | Inactive | Inactive | Inactive |  |  |  |  |  |  |  | 
